{"source": "patent US8410113B2", "about": "“(2R)-1-(3-chloro-2-pyrazinyl)-2-methylpiperazine and salts thereof” (Biovitrum AB (publ), priority 2002, dated 2013)", "key": {"[1]": {"assay": "Crystallinity (X-rays / powder X-ray diffraction)", "format": "physicochemical", "settings": "for Crystallinity (X-Rays): salts of Example 2A; for Crystallinity (Powder X-Ray Diffraction): salts of Example 2C; for degree of crystallinity (Powder X-Ray Diffraction): salts of Example 2B, fumarate", "source_text": "(§1) Crystallinity (Powder X-Ray Diffraction)\nas §1"}, "[2]": {"assay": "Hygroscopicity (DVS, storage at RT/different RHs and at 40° C./75% RH)", "format": "physicochemical", "experimental": "Hygroscopicity (DVS, Storage at RT/Different RHs and at 40° C./75% RH)"}, "[3]": {"assay": "Chemical stability (2 weeks at 65° C.)", "format": "physicochemical", "settings": "salts of Example 2A, also RT/90% RH", "experimental": "Chemical Stability (2 Weeks at 65° C.)"}, "[4]": {"assay": "Polymorphism screen (RT evaporation, cooling crystallization at −20° C.)", "format": "physicochemical", "settings": "salts of Example 2A, cooling crystallization at −20° C. in different solvent or mixtures"}, "Solubility": {"assay": "Solubility", "source_text": "Solubility (Water, pH 1.2 and pH 7.4 Buffers)\n(§2) Solubility and Intrinsic Dissolution Rate"}, "[5]": {"settings": "assessment, no test described, cited from earlier work"}, "[6]": {"assay": "Intrinsic dissolution rate", "format": "physicochemical", "settings": "for intrinsic dissolution rate (in words, order): salts of Example 2B", "source_text": "Intrinsic Dissolution Rate (pH 1.2)\nas §2"}, "[7]": {"settings": "controlled studies; cited from earlier work"}, "[8]": {"assay": "Chemical stability during storage", "settings": "long term storage; free base vs hydrochloride"}, "[9]": {"settings": "salts of Example 2A, DVS, storage at RT/different RHs"}, "[10]": {"settings": "salts of Example 2C, purified water, preliminary studies"}, "[11]": {"settings": "listed as L-malate, L-malate salt"}}, "note": "“Also recorded” adds a separate entry of the source. Where two headings read alike, the source gives them in different places.", "data": [{"molecule": "C[C@@H]1CNCCN1c1nccnc1OCCOc1cccnc1.O=C(O)c1ccccc1", "note": "[benzoate, (2R)-methyl-1-{3-[2-(3-pyridinyloxy)ethoxy]-2-pyrazinyl}piperazine, benzoate]", "values": [{"measurement": "Crystallinity (X-Rays)", "setting": "[1]", "result": "Positive results"}, {"measurement": "Hygroscopicity", "setting": "[2]; [9]", "result": "cake formation and darkening"}, {"measurement": "Chemical stability", "setting": "[3]", "result": "Positive data"}, {"measurement": "Polymorphism", "setting": "[4]", "result": "did not show other polymorphs"}]}, {"molecule": "CCOc1ncccc1OCCOc1nccnc1N1CCNC[C@H]1C.O=C(O)CCC(=O)O", "values": [{"measurement": "melting point", "result": "116 to 132", "unit": "°C"}]}, {"molecule": "(2R)-1-[3-(2-{[2-(2-dimethylaminoethoxy)-3-pyridinyl]oxy}ethoxy)-2-pyrazinyl]-2-methylpiperazine, 1,5-naphthalenedisulfonate", "values": [{"measurement": "Crystallinity (Powder X-Ray Diffraction)", "setting": "[1]", "result": "predominantly crystalline"}, {"measurement": "Hygroscopicity", "setting": "[2]; salts of Example 2C", "result": "moderate"}, {"measurement": "solubility", "setting": "Solubility; salts of Example 2C, medium not stated", "result": "> 540", "unit": "mg/mL"}]}, {"molecule": "C[C@@H]1CNCCN1c1nccnc1OCCOc1cccnc1OCCN(C)C.O=C(O)C(=O)O", "note": "[oxalate, (2R)-1-[3-(2-{[2-(2-dimethylaminoethoxy)-3-pyridinyl]oxy}ethoxy)-2-pyrazinyl]-2-methylpiperazine, oxalate]", "values": [{"measurement": "Crystallinity (Powder X-Ray Diffraction)", "setting": "[1]", "result": "high degree of crystallinity"}, {"measurement": "Hygroscopicity", "setting": "[2]; salts of Example 2C", "result": "low"}, {"measurement": "Toxicological acceptability", "setting": "[5]; salts of Example 2C", "result": "inappropriate due to toxicological reasons"}]}, {"molecule": "C[C@@H]1CNCCN1c1nccnc1OCCOc1cccnc1OCCN(C)C.O=P(O)(O)O", "note": "[Example 3C, (2R)-1-[3-(2-{[2-(2-dimethylaminoethoxy)-3-pyridinyl]oxy}ethoxy)-2-pyrazinyl]-2-methylpiperazine, phosphoric acid salt]", "values": [{"measurement": "Crystallinity (Powder X-Ray Diffraction)", "setting": "[1]", "result": "predominantely crystalline to moderately crystallinity; also recorded: high crystallinity"}, {"measurement": "Hygroscopicity", "setting": "[2]; salts of Example 2C", "result": "low and low hygroscopicity"}, {"measurement": "solubility (in words, comparison of salts)", "setting": "Solubility; salts of Example 2C", "result": "high solubility"}, {"measurement": "solubility", "setting": "Solubility; water", "result": "≥ 590", "unit": "mg/mL"}, {"measurement": "melting point", "result": "140 to 168", "unit": "°C"}, {"measurement": "Toxicological acceptability", "setting": "[5]; salts of Example 2C", "result": "low toxicity"}]}, {"molecule": "C[C@@H]1CNCCN1c1nccnc1OCCOc1cccnc1OCCN(C)C.O=C(O)CCC(=O)O", "note": "[succinate, (2R)-1-[3-(2-{[2-(2-dimethylaminoethoxy)-3-pyridinyl]oxy}ethoxy)-2-pyrazinyl]-2-methylpiperazine, succinate]", "values": [{"measurement": "Hygroscopicity", "setting": "[2]; salts of Example 2C", "result": "very hygroscopic and deliquescent"}, {"measurement": "solubility (in words, comparison of salts)", "setting": "Solubility; salts of Example 2B", "result": "higher than the fumarate salt"}, {"measurement": "intrinsic dissolution rate (in words, order)", "setting": "[6]", "result": "base<fumarate<succinate"}]}, {"molecule": "C[C@@H]1CNCCN1c1nccnc1OCCOc1cccnc1OCCN(C)C.O=C(O)CN(CCN(CC(=O)O)CC(=O)O)CC(=O)O", "note": "[edeteate, (2R)-1-[3-(2-{[2-(2-dimethylaminoethoxy)-3-pyridinyl]oxy}ethoxy)-2-pyrazinyl]-2-methylpiperazine, edeteate]", "values": [{"measurement": "Crystallinity (Powder X-Ray Diffraction)", "setting": "[1]", "result": "practically amorphous"}, {"measurement": "Hygroscopicity", "setting": "[2]; salts of Example 2C", "result": "very hygroscopic and deliquescent"}]}, {"molecule": "(2R)-1-[3-(2-{[2-(2-dimethylaminoethoxy)-3-pyridinyl]oxy}ethoxy)-2-pyrazinyl]-2-methylpiperazine, 1,3,5-benzenetricarboxylate", "values": [{"measurement": "Crystallinity (Powder X-Ray Diffraction)", "setting": "[1]", "result": "predominantly crystalline"}, {"measurement": "Hygroscopicity", "setting": "[2]; salts of Example 2C", "result": "low"}, {"measurement": "solubility (in words, comparison of salts)", "setting": "Solubility; salts of Example 2C", "result": "lower than for the phosphoric acid salt"}, {"measurement": "solubility", "setting": "Solubility; salts of Example 2C, SGF (simulated gastric fluid without enzymes; pH of filtrate 2.9), preliminary studies", "result": "> 19", "unit": "mg/mL"}, {"measurement": "solubility", "setting": "Solubility; salts of Example 2C, SIF (simulated intestinal fluid without enzymes; pH of filtrate 4.2), preliminary studies", "result": 11, "unit": "mg/mL"}, {"measurement": "solubility", "setting": "Solubility; [10]", "result": "≈ 4 mg/ml"}]}, {"molecule": "CCOc1ncccc1OCCOc1nccnc1N1CCNC[C@H]1C", "note": "[Example 2B, (2R)-1-(3-{2-[(2-ethoxy-3-pyridinyl)oxy]ethoxy}-2-pyrazinyl)-2-methylpiperazine]", "values": [{"measurement": "intrinsic dissolution rate (in words, order)", "setting": "[6]", "result": "base<fumarate<succinate"}]}, {"molecule": "CNCCC(Oc1ccc(C(F)(F)F)cc1)c1ccccc1", "note": "(stereo not drawn) [fluoxetine]", "values": [{"measurement": "weight reduction", "setting": "[7]", "result": "weight reduction"}]}, {"molecule": "C[C@@H]1CNCCN1c1nccnc1OCCOc1cccnc1OCCN(C)C.O=C(O)[C@@H](O)[C@H](O)[C@H](O)[C@@H](O)C(=O)O", "note": "[galactareate, (2R)-1-[3-(2-{[2-(2-dimethylaminoethoxy)-3-pyridinyl]oxy}ethoxy)-2-pyrazinyl]-2-methylpiperazine, galactareate (mucic acid salt)]", "values": [{"measurement": "Crystallinity (Powder X-Ray Diffraction)", "setting": "[1]", "result": "partially amorphous"}]}, {"molecule": "(2R)-1-[3-(2-{[2-(2-dimethylaminoethoxy)-3-pyridinyl]oxy}ethoxy)-2-pyrazinyl]-2-methylpiperazine, terephthalate", "values": [{"measurement": "Crystallinity (Powder X-Ray Diffraction)", "setting": "[1]", "result": "predominantly crystalline"}, {"measurement": "Hygroscopicity", "setting": "[2]; salts of Example 2C", "result": "hight (deliquescent)"}, {"measurement": "solubility", "setting": "Solubility; [10]", "result": "< 1", "unit": "mg/mL"}]}, {"molecule": "C[C@@H]1CNCCN1c1nccnc1OCCOc1cccnc1OCCN(C)C.O=C(O)C(O)C(O)C(=O)O", "note": "[D-tartrate, (2R)-1-[3-(2-{[2-(2-dimethylaminoethoxy)-3-pyridinyl]oxy}ethoxy)-2-pyrazinyl]-2-methylpiperazine, D-tartrate]", "values": [{"measurement": "Crystallinity (Powder X-Ray Diffraction)", "setting": "[1]", "result": "low degree of crystallinity"}, {"measurement": "Hygroscopicity", "setting": "[2]; salts of Example 2C", "result": "very hygroscopic and deliquescent"}]}, {"molecule": "C[C@@H]1CNCCN1c1nccnc1OCCOc1cccnc1.Cl", "note": "[hydrochloride, (2R)-methyl-1-{3-[2-(3-pyridinyloxy)ethoxy]-2-pyrazinyl}piperazine, hydrochloride, reference compound]", "values": [{"measurement": "Crystallinity (X-Rays)", "setting": "[1]", "result": "lower crystallinity"}, {"measurement": "Hygroscopicity", "setting": "[2]; [9]", "result": "deliquescent"}]}, {"molecule": "CCOc1ncccc1OCCOc1nccnc1N1CCNC[C@H]1C.O=C(O)/C=C/C(=O)O", "note": "[fumarate, (2R)-1-(3-{2-[(2-ethoxy-3-pyridinyl)oxy]ethoxy}-2-pyrazinyl)-2-methylpiperazine, fumarate, reference compound]", "values": [{"measurement": "degree of crystallinity (Powder X-Ray Diffraction)", "setting": "[1]", "result": "succinate>acetate>fumarate"}, {"measurement": "degree of crystallinity (Powder X-Ray Diffraction)", "setting": "[1]; listed as fumarate salt", "result": "inferior to that of the succinate salt"}, {"measurement": "solubility", "setting": "Solubility; 0.9% w/w NaCl, saline or isotonic", "result": "> 93", "unit": "mg/mL"}, {"measurement": "solubility", "setting": "Solubility; phosphate buffer, pH 7.4, aqueous buffer", "result": "> 68", "unit": "mg/mL"}, {"measurement": "solubility (in words, comparison of salts)", "setting": "Solubility; salts of Example 2B", "result": "inferior to that of the succinate salt"}, {"measurement": "intrinsic dissolution rate (in words, order)", "setting": "[6]; fumarate", "result": "base<fumarate<succinate"}, {"measurement": "intrinsic dissolution rate (in words, order)", "setting": "[6]; listed as fumarate salt, fumarate", "result": "inferior to that of the succinate salt"}]}, {"molecule": "C[C@@H]1CNCCN1c1nccnc1OCCOc1cccnc1OCCN(C)C.O=C(O)CC(O)(CC(=O)O)C(=O)O", "note": "[citrate, (2R)-1-[3-(2-{[2-(2-dimethylaminoethoxy)-3-pyridinyl]oxy}ethoxy)-2-pyrazinyl]-2-methylpiperazine, citrate]", "values": [{"measurement": "Crystallinity (Powder X-Ray Diffraction)", "setting": "[1]", "result": "practically amorphous"}, {"measurement": "Hygroscopicity", "setting": "[2]; salts of Example 2C", "result": "very hygroscopic and deliquescent"}]}, {"molecule": "CCN[C@@H](C)Cc1cccc(C(F)(F)F)c1", "note": "[dexfenfluramine]", "values": [{"measurement": "weight reduction", "setting": "[7]", "result": "weight reduction"}]}, {"molecule": "C[C@@H]1CNCCN1c1nccnc1OCCOc1cccnc1.O=C(O)C[C@H](O)C(=O)O", "note": "[Example 3A, (2R)-methyl-1-{3-[2-(3-pyridinyloxy)ethoxy]-2-pyrazinyl}piperazine, L-malate salt]", "values": [{"measurement": "Crystallinity (X-Rays)", "setting": "[1]; L-malate salt", "result": "higher crystallinity"}, {"measurement": "Crystallinity (X-Rays)", "setting": "[1]; [11]", "result": "Positive results; also recorded: high crystallinity"}, {"measurement": "behavior upon exposition to 40° C./75% RH", "setting": "[2]; salts of Example 2A", "result": "good behavior"}, {"measurement": "Hygroscopicity", "setting": "[2]; salts of Example 2A, DVS, storage at RT/different RHs, L-malate salt", "result": "less hygroscopic"}, {"measurement": "Hygroscopicity", "setting": "[2]; salts of Example 2A, DVS, storage at RT/different RHs, listed as L-malate, L-malate salt", "result": "low hygroscopicity"}, {"measurement": "Chemical stability", "setting": "[3]; L-malate salt", "result": "higher chemical stability"}, {"measurement": "Chemical stability", "setting": "[3]; [11]", "result": "Positive data; also recorded: high chemical stability"}, {"measurement": "Polymorphism", "setting": "[4]", "result": "did not show other polymorphs"}, {"measurement": "Toxicological acceptability", "setting": "[5]; salts of Example 2A", "result": "low toxicity"}]}, {"molecule": "(2R)-methyl-1-{3-[2-(3-pyridinyloxy)ethoxy]-2-pyrazinyl}piperazine, cinnamate", "values": [{"measurement": "Crystallinity (X-Rays)", "setting": "[1]", "result": "Positive results"}, {"measurement": "behavior upon exposition to 40° C./75% RH", "setting": "[2]; salts of Example 2A", "result": "good behavior"}, {"measurement": "Intrinsic dissolution rate (IDR)", "setting": "[6]; salts of Example 2A, pH 1.2", "result": "10^−3 mgsec^−1 cm^−2"}, {"measurement": "Chemical stability", "setting": "[3]", "result": "Positive data"}]}, {"molecule": "(2R)-1-(3-{2-[(2-ethoxy-3-pyridinyl)oxy]ethoxy}-2-pyrazinyl)-2-methylpiperazine, fumarate [reference compound]", "values": [{"measurement": "Crystallinity (X-Rays)", "setting": "[1]", "result": "lower crystallinity"}, {"measurement": "Hygroscopicity", "setting": "[2]; [9]", "result": "hydrate conversion"}, {"measurement": "Chemical stability", "setting": "[3]", "result": "less stable"}]}, {"molecule": "C[C@@H]1CNCCN1c1nccnc1Cl.Cl", "note": "[Example 9, (2R)-1-(3-chloro-2-pyrazinyl)-2-methylpiperazine, hydrochloride]", "values": [{"measurement": "melting point", "result": "209 to 210.5", "unit": "°C"}, {"measurement": "stability for storage", "setting": "[8]", "result": "considerably more stable"}]}]}
